Results reported in the supplement of paper PMC7017272.
± gives the standard deviation of the averaged measurements.

Key:
Conditions in all cases: treatment time: 3 days
UT-SCC-24A [1] = assay: drug sensitivity score (DSS); higher = more sensitive
Description: (§1)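 HNSCC cell lines (500 cells/well, 384-well) were cultured on plastic, on top of (2D) or embedded (3D) in Matrigel or human leiomyoma matrix Myogel (500 ug/mL; Myogel 3D mixed with rat collagen I). Cells were treated for 3 days with 5 ten-fold concentrations of each drug, and viability was read by CellTiter-Glo. Suffixes _1/_2/_3 on drug names are replicates.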

UT-SCC-106A [2] = assay: maximal % inhibition of viability relative to DMSO; higher = stronger effect
Method in brief: (§2)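 HPV-negative HNSCC cell lines were seeded at 500 cells/well in 384-well plates on plastic, on Matrigel- or Myogel-coated wells (500 µg/mL), or embedded in Matrigel or Myogel plus rat collagen I. Compounds were given at five 10-fold concentrations for 3 days, and viability was read by CellTiter-Glo 2.0 luminescence. Signals were normalised to vehicle (0.1% DMSO) and cell-killing control wells. Percent-inhibition dose–response curves were fitted in the FIMM pipeline to derive IC50, maximal inhibition and drug sensitivity score.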

UT-SCC-44 [3] = assay: as above
Method in brief: as §2

UT-SCC-73 [4] = assay: as above
Method in brief: as §2

UT-SCC-24A [5] = assay: maximal % inhibition of viability relative to DMSO; higher = stronger effect
Description: as §1, with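 “CellTiter-Glo. Viability was normalised to DMSO (0% inhibition) and 100 uM benzethonium chloride (100% inhibition) controls and fitted with the FIMM DSRT pipeline to give IC50 (nM), maximal % inhibition and the drug sensitivity score (DSS).” for “CellTiter-Glo.”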

UT-SCC-106A [6] = assay: drug sensitivity score (DSS); higher = more sensitive; extreme values may be limits of the assay
Method in brief: as §2

UT-SCC-14 = assay: as above
Method in brief: as §2

UT-SCC-24B = assay: as above
Method in brief: as §2

UT-SCC-28 = assay: as above
Method in brief: as §2

UT-SCC-40 = assay: as above
Method in brief: as §2

UT-SCC-42A = assay: as above
Method in brief: as §2

UT-SCC-42B = assay: as above
Method in brief: as §2

UT-SCC-44 [7] = assay: as above
Method in brief: as §2

UT-SCC-73 [8] = assay: as above
Method in brief: as §2

UT-SCC-81 = assay: as above
Method in brief: as §2

UT-SCC-8 = assay: as above
Method in brief: as §2

[9] = culture condition: embedded in Matrigel
[10] = culture condition: embedded in Myogel + collagen I
[11] = culture condition: on top of Matrigel
[12] = culture condition: on top of Myogel
[13] = culture condition: plastic 2D (no matrix)

`Cn1c(=O)n(-c2ccc(C(C)(C)C#N)cc2)c2c3cc(-c4cnc5ccccc5c4)ccc3ncc21` [Dactolisib] gave a drug sensitivity score (UT-SCC-24A [1]; [9]) of 5.73 ± 5 DSS, a drug sensitivity score (UT-SCC-24A [1]; [10]) of 0.767 ± 1.3 DSS and a drug sensitivity score (UT-SCC-24A [1]; [11]) of 0 DSS. The drug sensitivity score (UT-SCC-24A [1]; [12]) was 0 DSS, the drug sensitivity score (UT-SCC-24A [1]; [13]) was 0 DSS and the “maximal % inhibition of viability” value (UT-SCC-106A [2]; [9]) was 3.67 ± 0.31%. The “maximal % inhibition of viability” value (UT-SCC-106A [2]; [10]) was 7.53 ± 8.4%, the “maximal % inhibition of viability” value (UT-SCC-106A [2]; [11]) was 4.43 ± 3.8% and the “maximal % inhibition of viability” value (UT-SCC-106A [2]; [12]) was 5.1 ± 8.8%. For the same compound, the “maximal % inhibition of viability” value (UT-SCC-106A [2]; [13]) was 7.07 ± 3.2%, the “maximal % inhibition of viability” value (UT-SCC-44 [3]; [9]) was 12.5 ± 9.3% and the “maximal % inhibition of viability” value (UT-SCC-44 [3]; [10]) was 13.2 ± 23%. The “maximal % inhibition of viability” value (UT-SCC-44 [3]; [11]) was 13.7 ± 2.4%, the “maximal % inhibition of viability” value (UT-SCC-44 [3]; [12]) was 12.8 ± 4.1% and the “maximal % inhibition of viability” value (UT-SCC-44 [3]; [13]) was 16.8 ± 4.5%. The “maximal % inhibition of viability” value (UT-SCC-73 [4]; [9]) was 11.8 ± 3.4%, the “maximal % inhibition of viability” value (UT-SCC-73 [4]; [10]) was 40.1 ± 8.9% and the “maximal % inhibition of viability” value (UT-SCC-73 [4]; [11]) was 9.33 ± 2.9%. For the same compound, the “maximal % inhibition of viability” value (UT-SCC-73 [4]; [12]) was 8.23 ± 2.8%, the “maximal % inhibition of viability” value (UT-SCC-73 [4]; [13]) was 1.63 ± 0.76% and the “maximal % inhibition of viability” value (UT-SCC-24A [5]; [9]) was 34.6 ± 9%. For the same compound, the “maximal % inhibition of viability” value (UT-SCC-24A [5]; [10]) was 14.9 ± 11%, the “maximal % inhibition of viability” value (UT-SCC-24A [5]; [11]) was 14.7 ± 5.4% and the “maximal % inhibition of viability” value (UT-SCC-24A [5]; [12]) was 4.17 ± 3.1%. The “maximal % inhibition of viability” value (UT-SCC-24A [5]; [13]) was 6.6 ± 2.1%, the drug sensitivity score (UT-SCC-106A [6]; [9]) was 0 DSS and the drug sensitivity score (UT-SCC-106A [6]; [10]) was 0 DSS. For the same compound, the drug sensitivity score (UT-SCC-106A [6]; [11]) was 0 DSS, the drug sensitivity score (UT-SCC-106A [6]; [12]) was 0 DSS and the drug sensitivity score (UT-SCC-106A [6]; [13]) was 0.0333 ± 0.058 DSS. It also gave a drug sensitivity score (UT-SCC-14; [9]) of 3.03 ± 5.2 DSS, a drug sensitivity score (UT-SCC-14; [10]) of 0 DSS and a drug sensitivity score (UT-SCC-14; [11]) of 0 DSS. The drug sensitivity score (UT-SCC-14; [12]) was 0 DSS, the drug sensitivity score (UT-SCC-14; [13]) was 0.3 ± 0.52 DSS and the drug sensitivity score (UT-SCC-24B; [9]) was 11.6 ± 0.64 DSS. It also gave a drug sensitivity score (UT-SCC-24B; [10]) of 16.3 ± 0.52 DSS, a drug sensitivity score (UT-SCC-24B; [11]) of 13.4 ± 0.46 DSS and a drug sensitivity score (UT-SCC-24B; [12]) of 13.6 ± 0.51 DSS. It also gave a drug sensitivity score (UT-SCC-24B; [13]) of 12.8 ± 0.25 DSS, a drug sensitivity score (UT-SCC-28; [9]) of 0 DSS and a drug sensitivity score (UT-SCC-28; [10]) of 0.133 ± 0.23 DSS. The drug sensitivity score (UT-SCC-28; [11]) was 0.1 ± 0.17 DSS, the drug sensitivity score (UT-SCC-28; [13]) was 0 DSS and the drug sensitivity score (UT-SCC-40; [9]) was 0.5 ± 0.87 DSS. For the same compound, the drug sensitivity score (UT-SCC-40; [10]) was 0 DSS, the drug sensitivity score (UT-SCC-40; [11]) was 0 DSS and the drug sensitivity score (UT-SCC-40; [12]) was 0 DSS. It also gave a drug sensitivity score (UT-SCC-40; [13]) of 0 DSS, a drug sensitivity score (UT-SCC-42A; [9]) of 0 DSS and a drug sensitivity score (UT-SCC-42A; [10]) of 0 DSS. For the same compound, the drug sensitivity score (UT-SCC-42A; [11]) was 0 DSS, the drug sensitivity score (UT-SCC-42A; [12]) was 0 DSS and the drug sensitivity score (UT-SCC-42A; [13]) was 0 DSS. The drug sensitivity score (UT-SCC-42B; [9]) was 0 DSS, the drug sensitivity score (UT-SCC-42B; [11]) was 0 DSS and the drug sensitivity score (UT-SCC-42B; [12]) was 0 DSS. It also gave a drug sensitivity score (UT-SCC-42B; [13]) of 0 DSS, a drug sensitivity score (UT-SCC-44 [7]; [9]) of 0 DSS and a drug sensitivity score (UT-SCC-44 [7]; [10]) of 0 DSS. The drug sensitivity score (UT-SCC-44 [7]; [11]) was 0 DSS, the drug sensitivity score (UT-SCC-44 [7]; [12]) was 0 DSS and the drug sensitivity score (UT-SCC-44 [7]; [13]) was 0.9 ± 1.6 DSS. It also gave a drug sensitivity score (UT-SCC-73 [8]; [9]) of 0 DSS, a drug sensitivity score (UT-SCC-73 [8]; [10]) of 0 DSS and a drug sensitivity score (UT-SCC-73 [8]; [11]) of 0 DSS. It also gave a drug sensitivity score (UT-SCC-73 [8]; [12]) of 0 DSS, a drug sensitivity score (UT-SCC-73 [8]; [13]) of 0 DSS and a drug sensitivity score (UT-SCC-81; [9]) of 3.7 ± 3.4 DSS. For the same compound, the drug sensitivity score (UT-SCC-81; [10]) was 0 DSS, the drug sensitivity score (UT-SCC-81; [11]) was 0 DSS and the drug sensitivity score (UT-SCC-81; [12]) was 0 DSS. It also gave a drug sensitivity score (UT-SCC-81; [13]) of 0 DSS, a drug sensitivity score (UT-SCC-8; [9]) of 0 DSS and a drug sensitivity score (UT-SCC-8; [10]) of 0.6 ± 0.66 DSS. For the same compound, the drug sensitivity score (UT-SCC-8; [11]) was 0 DSS, the drug sensitivity score (UT-SCC-8; [12]) was 0.133 ± 0.15 DSS and the drug sensitivity score (UT-SCC-8; [13]) was 0 DSS.
